pIC50: −log10 of the molar value.
Columns and labels:
[1] = target: Ras-related protein Rab-5C (Homo sapiens) (UniProt P51148); also: assay method not described here
Ephrin type-A receptor 5 = Ephrin type-A receptor 5 (Homo sapiens, UniProt P54756); also: assay method not described here
[2] = target: Dipeptidyl peptidase 2 (Homo sapiens) (UniProt Q9UHL4); also: assay method not described here
Ephrin type-A receptor 3 = Ephrin type-A receptor 3 (Homo sapiens, UniProt P29320); test: Inhibition of Nano Luc-fused full length C-terminal EPHA3 (unknown origin) expressed in HEK293T cells using NanoGlo as substrate incubated for 2 hrs in presence of tracer by NanoBRET assay; format: cell-based
[3] = target: WASH complex subunit 5 (Homo sapiens) (UniProt Q12768); also: assay method not described here
[4] = target: Nucleoside diphosphate kinase A (Homo sapiens) (UniProt P15531); also: assay method not described here
[5] = target: Bone morphogenetic protein receptor type-2 (Homo sapiens) (UniProt Q13873); also: assay method not described here
[6] = target: Chitobiosyldiphosphodolichol beta-mannosyltransferase (Homo sapiens) (UniProt Q9BT22); also: assay method not described here
Ephrin type-A receptor 4 = Ephrin type-A receptor 4 (Homo sapiens, UniProt P54764); test: Inhibition of Nano Luc-fused full length C-terminal EPHA4 (unknown origin) expressed in HEK293T cells using NanoGlo as substrate incubated for 2 hrs in presence of tracer by NanoBRET assay; format: cell-based
[7] = target: DNA topoisomerase 2-beta (Homo sapiens) (UniProt Q02880); also: assay method not described here
[8] = target: RNA-splicing ligase RtcB homolog (Homo sapiens) (UniProt Q9Y3I0); also: assay method not described here
Ephrin type-B receptor 2 = Ephrin type-B receptor 2 (Homo sapiens, UniProt P29323); test: Inhibition of Nano Luc-fused full length C-terminal EPHB2 (unknown origin) expressed in HEK293T cells using NanoGlo as substrate incubated for 2 hrs in presence of tracer by NanoBRET assay; format: cell-based
[9] = target: Ribonuclease H1 (Homo sapiens) (UniProt O60930); also: assay method not described here
[10] = target: Exportin-1 (Homo sapiens) (UniProt O14980); also: assay method not described here
[11] = target: Activin receptor type-1 (Homo sapiens) (UniProt Q04771); also: assay method not described here
[12] = target: CDK5 and ABL1 enzyme substrate 1 (Homo sapiens) (UniProt Q8TDN4); also: assay method not described here
[13] = target: E3 ubiquitin-protein ligase listerin (Homo sapiens) (UniProt O94822); also: assay method not described here
[14] = target: TAR DNA-binding protein 43 (Homo sapiens) (UniProt Q13148); also: assay method not described here
[15] = target: Protein-L-isoaspartate(D-aspartate) O-methyltransferase (Homo sapiens) (UniProt P22061); also: assay method not described here
[16] = target: Large ribosomal subunit protein P1 (Homo sapiens) (UniProt P05386); also: assay method not described here
[17] = target: T-complex protein 1 subunit beta (Homo sapiens) (UniProt P78371); also: assay method not described here
[18] = target: Pyruvate kinase PKM (Homo sapiens) (UniProt P14618); also: assay method not described here
[19] = target: Dual specificity tyrosine-phosphorylation-regulated kinase 1A (Homo sapiens) (UniProt Q13627); also: assay method not described here
[20] = target: Proteasome subunit alpha type-7 (Homo sapiens) (UniProt O14818); also: assay method not described here
[21] = target: EKC/KEOPS complex subunit LAGE3 (Homo sapiens) (UniProt Q14657); also: assay method not described here
[22] = target: Replication factor C subunit 5 (Homo sapiens) (UniProt P40937); also: assay method not described here
[23] = target: Serine hydrolase BPHL (Homo sapiens) (UniProt Q86WA6); also: assay method not described here
[24] = target: Complex I assembly factor ACAD9, mitochondrial (Homo sapiens) (UniProt Q9H845); also: assay method not described here
[25] = target: c-Myc-binding protein (Homo sapiens) (UniProt Q99417); also: assay method not described here
[26] = target: Malate dehydrogenase, cytoplasmic (Homo sapiens) (UniProt P40925); also: assay method not described here
[27] = target: Conserved oligomeric Golgi complex subunit 5 (Homo sapiens) (UniProt Q9UP83); also: assay method not described here
[28] = target: Lysine-specific histone demethylase 1A (Homo sapiens) (UniProt O60341); also: assay method not described here
[29] = target: OCIA domain-containing protein 1 (Homo sapiens) (UniProt Q9NX40); also: assay method not described here
[30] = target: Lysosomal alpha-mannosidase (Homo sapiens) (UniProt O00754); also: assay method not described here
[31] = target: Small ribosomal subunit protein eS1 (Homo sapiens) (UniProt P61247); also: assay method not described here
[32] = target: Complement component 1 Q subcomponent-binding protein, mitochondrial (Homo sapiens) (UniProt Q07021); also: assay method not described here
[33] = target: Activator of 90 kDa heat shock protein ATPase homolog 1 (Homo sapiens) (UniProt O95433); also: assay method not described here
[34] = target: Dual specificity testis-specific protein kinase 1 (Homo sapiens) (UniProt Q15569); also: assay method not described here
Tektin-1 (Homo sapiens) = Tektin-1 (Homo sapiens) (UniProt Q969V4); also: assay method not described here
[35] = target: Large ribosomal subunit protein bL21m (Homo sapiens) (UniProt Q7Z2W9); also: assay method not described here
[36] = target: PHD finger protein 6 (Homo sapiens) (UniProt Q8IWS0); also: assay method not described here
[37] = target: Ubiquitin-conjugating enzyme E2 G2 (Homo sapiens) (UniProt P60604); also: assay method not described here
Copine-4 (Homo sapiens) = Copine-4 (Homo sapiens) (UniProt Q96A23); also: assay method not described here
For ED50 in this document: assay method not described here.

Ephrin type-A receptor 4, sequence (P54764 whole entry, the tested form may be a part): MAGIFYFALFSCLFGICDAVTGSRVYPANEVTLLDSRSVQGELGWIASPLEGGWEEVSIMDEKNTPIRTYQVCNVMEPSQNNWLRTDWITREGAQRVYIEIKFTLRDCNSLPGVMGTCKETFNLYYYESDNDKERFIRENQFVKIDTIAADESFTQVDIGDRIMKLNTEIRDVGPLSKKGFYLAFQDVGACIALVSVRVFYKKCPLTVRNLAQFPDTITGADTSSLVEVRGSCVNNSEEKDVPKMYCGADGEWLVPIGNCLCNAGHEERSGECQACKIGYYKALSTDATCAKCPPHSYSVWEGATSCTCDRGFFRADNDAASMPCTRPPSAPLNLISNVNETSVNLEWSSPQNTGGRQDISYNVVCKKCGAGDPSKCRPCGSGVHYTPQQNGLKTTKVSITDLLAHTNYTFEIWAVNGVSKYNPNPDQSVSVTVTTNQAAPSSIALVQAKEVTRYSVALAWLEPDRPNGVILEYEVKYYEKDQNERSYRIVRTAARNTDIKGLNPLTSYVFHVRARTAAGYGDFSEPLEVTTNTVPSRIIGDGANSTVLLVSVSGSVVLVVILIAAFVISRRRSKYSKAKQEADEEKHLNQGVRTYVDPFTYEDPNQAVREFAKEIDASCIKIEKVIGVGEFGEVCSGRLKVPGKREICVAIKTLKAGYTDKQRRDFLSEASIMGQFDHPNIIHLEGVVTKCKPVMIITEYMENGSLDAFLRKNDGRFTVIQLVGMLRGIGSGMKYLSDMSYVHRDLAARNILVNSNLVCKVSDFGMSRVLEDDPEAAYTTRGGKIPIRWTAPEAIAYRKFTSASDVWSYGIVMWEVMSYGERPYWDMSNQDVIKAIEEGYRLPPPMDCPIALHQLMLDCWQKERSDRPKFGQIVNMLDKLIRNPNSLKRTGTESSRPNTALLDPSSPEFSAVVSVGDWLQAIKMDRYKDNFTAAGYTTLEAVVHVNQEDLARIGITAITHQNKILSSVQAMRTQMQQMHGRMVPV
Ribonuclease H1 (Homo sapiens), sequence (O60930 whole entry): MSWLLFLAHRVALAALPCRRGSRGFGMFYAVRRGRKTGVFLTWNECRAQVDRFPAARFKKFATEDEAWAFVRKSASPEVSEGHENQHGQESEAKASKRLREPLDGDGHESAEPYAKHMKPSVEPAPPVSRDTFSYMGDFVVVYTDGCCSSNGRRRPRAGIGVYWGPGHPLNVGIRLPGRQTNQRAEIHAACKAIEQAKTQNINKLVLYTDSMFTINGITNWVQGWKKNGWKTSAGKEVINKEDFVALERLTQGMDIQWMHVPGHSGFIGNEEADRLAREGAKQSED
WASH complex subunit 5 (Homo sapiens), sequence (Q12768 whole entry, one chain of several): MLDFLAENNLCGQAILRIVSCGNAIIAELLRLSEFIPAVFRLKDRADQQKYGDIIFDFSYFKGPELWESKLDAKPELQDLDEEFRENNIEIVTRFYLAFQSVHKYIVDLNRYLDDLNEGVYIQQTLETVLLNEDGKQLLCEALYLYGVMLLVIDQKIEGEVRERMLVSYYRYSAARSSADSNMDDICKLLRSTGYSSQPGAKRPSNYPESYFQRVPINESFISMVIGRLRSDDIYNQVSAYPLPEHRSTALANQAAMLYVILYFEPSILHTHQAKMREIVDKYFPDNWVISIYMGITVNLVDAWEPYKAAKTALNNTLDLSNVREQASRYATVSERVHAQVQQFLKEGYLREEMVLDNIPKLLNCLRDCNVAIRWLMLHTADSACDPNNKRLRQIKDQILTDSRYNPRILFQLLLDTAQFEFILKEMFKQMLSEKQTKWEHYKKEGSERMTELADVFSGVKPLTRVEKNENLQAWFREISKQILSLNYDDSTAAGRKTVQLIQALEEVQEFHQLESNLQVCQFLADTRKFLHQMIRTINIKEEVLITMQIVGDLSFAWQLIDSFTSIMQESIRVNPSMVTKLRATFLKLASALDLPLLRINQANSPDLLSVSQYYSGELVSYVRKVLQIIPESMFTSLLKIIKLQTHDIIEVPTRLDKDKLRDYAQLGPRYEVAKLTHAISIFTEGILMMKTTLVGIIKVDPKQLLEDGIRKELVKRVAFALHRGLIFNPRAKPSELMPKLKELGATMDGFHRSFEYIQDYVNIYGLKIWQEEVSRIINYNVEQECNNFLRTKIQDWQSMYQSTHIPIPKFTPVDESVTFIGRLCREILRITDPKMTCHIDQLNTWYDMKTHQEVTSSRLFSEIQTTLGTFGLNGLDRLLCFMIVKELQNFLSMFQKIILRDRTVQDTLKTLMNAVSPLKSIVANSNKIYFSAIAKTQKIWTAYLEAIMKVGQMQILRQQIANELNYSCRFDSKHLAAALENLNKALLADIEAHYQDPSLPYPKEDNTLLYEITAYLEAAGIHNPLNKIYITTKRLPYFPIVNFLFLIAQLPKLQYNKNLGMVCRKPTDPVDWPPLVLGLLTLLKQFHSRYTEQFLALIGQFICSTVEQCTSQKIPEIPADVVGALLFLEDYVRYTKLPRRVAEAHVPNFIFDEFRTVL
T-complex protein 1 subunit beta (Homo sapiens), sequence (P78371 whole entry, one chain of several): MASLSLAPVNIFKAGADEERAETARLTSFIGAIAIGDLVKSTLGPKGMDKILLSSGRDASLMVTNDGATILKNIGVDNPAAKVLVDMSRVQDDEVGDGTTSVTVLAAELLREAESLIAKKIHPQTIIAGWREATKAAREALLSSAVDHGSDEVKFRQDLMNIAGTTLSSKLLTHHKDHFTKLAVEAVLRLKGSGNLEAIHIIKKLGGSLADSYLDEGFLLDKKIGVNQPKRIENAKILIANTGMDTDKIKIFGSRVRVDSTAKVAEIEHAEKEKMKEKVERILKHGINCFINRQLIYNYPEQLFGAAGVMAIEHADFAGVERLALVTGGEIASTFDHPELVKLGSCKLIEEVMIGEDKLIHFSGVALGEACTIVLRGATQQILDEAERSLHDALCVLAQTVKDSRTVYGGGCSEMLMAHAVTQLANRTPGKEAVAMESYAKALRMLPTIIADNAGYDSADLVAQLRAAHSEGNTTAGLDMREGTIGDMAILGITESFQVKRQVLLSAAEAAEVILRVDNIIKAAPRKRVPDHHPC
Ephrin type-A receptor 5, sequence (P54756 whole entry): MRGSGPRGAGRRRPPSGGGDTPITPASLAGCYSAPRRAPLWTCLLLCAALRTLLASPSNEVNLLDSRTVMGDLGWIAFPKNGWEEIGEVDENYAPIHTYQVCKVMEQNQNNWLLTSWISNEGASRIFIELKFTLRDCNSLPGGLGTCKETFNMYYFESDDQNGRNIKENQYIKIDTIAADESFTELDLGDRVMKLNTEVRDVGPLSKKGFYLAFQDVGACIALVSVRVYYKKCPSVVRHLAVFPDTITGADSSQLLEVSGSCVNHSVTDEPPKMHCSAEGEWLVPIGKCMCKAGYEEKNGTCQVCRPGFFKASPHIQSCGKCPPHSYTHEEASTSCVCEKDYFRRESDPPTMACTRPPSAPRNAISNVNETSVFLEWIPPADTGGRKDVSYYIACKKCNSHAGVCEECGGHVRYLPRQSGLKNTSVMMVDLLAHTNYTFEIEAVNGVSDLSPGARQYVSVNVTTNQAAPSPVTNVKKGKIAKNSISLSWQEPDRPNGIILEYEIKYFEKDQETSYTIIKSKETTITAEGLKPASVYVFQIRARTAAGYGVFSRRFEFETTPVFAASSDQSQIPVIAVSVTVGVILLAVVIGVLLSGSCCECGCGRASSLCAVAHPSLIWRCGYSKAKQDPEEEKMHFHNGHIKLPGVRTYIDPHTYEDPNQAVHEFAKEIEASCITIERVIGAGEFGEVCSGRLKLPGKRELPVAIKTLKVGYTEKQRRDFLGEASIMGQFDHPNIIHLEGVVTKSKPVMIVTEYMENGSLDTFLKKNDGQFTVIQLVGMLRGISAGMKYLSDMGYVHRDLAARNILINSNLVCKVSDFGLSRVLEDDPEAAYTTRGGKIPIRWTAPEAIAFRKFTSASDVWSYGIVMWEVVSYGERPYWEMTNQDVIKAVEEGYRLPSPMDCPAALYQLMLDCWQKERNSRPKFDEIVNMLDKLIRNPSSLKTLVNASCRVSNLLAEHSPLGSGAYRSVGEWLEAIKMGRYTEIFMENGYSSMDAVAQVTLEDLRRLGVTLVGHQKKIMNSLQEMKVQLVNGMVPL
Ras-related protein Rab-5C (Homo sapiens), sequence (P51148 whole entry): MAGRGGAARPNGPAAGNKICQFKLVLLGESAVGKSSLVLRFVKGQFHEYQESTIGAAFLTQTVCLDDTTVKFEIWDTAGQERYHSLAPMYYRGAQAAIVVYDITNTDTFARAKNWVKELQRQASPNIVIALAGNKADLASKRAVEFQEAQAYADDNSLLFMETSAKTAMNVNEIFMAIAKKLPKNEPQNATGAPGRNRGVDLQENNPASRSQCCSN
Nucleoside diphosphate kinase A (Homo sapiens), sequence (P15531 whole entry): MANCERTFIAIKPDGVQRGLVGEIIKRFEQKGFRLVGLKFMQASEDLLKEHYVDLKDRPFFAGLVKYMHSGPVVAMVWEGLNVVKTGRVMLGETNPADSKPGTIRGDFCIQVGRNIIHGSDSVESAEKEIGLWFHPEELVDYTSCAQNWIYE
CDK5 and ABL1 enzyme substrate 1 (Homo sapiens), sequence (Q8TDN4 whole entry): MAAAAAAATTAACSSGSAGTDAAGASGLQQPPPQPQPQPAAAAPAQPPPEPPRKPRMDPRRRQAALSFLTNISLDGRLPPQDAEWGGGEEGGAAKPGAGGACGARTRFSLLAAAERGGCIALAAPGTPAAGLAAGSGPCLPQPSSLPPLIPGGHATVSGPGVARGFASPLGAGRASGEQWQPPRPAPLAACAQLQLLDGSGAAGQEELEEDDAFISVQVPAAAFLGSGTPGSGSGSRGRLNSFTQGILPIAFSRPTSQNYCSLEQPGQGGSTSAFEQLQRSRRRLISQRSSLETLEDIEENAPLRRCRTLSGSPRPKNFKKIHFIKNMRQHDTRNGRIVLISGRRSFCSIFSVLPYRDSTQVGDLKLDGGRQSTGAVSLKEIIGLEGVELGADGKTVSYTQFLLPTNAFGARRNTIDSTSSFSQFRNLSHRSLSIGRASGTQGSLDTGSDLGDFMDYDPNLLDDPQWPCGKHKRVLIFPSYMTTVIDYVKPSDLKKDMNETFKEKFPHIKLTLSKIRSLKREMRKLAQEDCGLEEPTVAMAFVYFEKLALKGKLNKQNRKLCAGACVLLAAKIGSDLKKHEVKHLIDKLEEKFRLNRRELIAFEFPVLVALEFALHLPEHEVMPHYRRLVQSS

SMILES	ED50 [1] [µM]	ED50 (Ephrin type-A receptor 5) [µM]	ED50 [2] [µM]	pIC50 (Ephrin type-A receptor 3)	ED50 [3] [µM]	ED50 [4] [µM]	ED50 [5] [µM]	ED50 [6] [µM]	pIC50 (Ephrin type-A receptor 4)	ED50 [7] [µM]	pIC50 (Ephrin type-B receptor 2)	ED50 [9] [µM]	ED50 [11] [µM]	ED50 [12] [µM]	ED50 [14] [µM]	ED50 [16] [µM]	ED50 [17] [µM]	ED50 [18] [µM]	ED50 [19] [µM]	ED50 [20] [µM]	also measured
Cc1ccc(C(=O)Nc2cccc(C(F)(F)F)c2)cc1Nc1nc(-c2cccnc2)nc2nn(C)cc12	13.9	0.982	0.504	7.30	3.06	2.02	0.0175	0.0163	~5.00	732	6.20	385	34000	0.175	0.176	16600	0.0532	0.174	12.5	17.5	ED50 [8]: 0.0383 µM; ED50 [10]: 4.43 µM; ED50 [13]: 0.753 µM; ED50 [15]: 0.393 µM
Cc1ccc(C(=O)Nc2cccc(C(F)(F)F)c2)cc1Nc1nc(-c2cccnc2)nc2c1cnn2C	19.2	0.0633	0.00529	9.52	0.000337	7.65	3.02	1.14	8.12	3.18	8.60	12.7	0.00315	0.993	0.814	0.0125	0.0178	5.83	0.102	94.2	ED50 [21]: 131 µM; ED50 [22]: 0.584 µM; ED50 [23]: 13.2 µM; ED50 [24]: 42.8 µM; ED50 [25]: 249 µM; ED50 [26]: 91.4 µM; ED50 [27]: 7.29 µM; ED50 [28]: 0.000417 µM; ED50 [29]: 0.00604 µM; ED50 (Homo sapiens): 3.23 µM; ED50 [30]: 83 µM; ED50 [31]: 2.45 µM; ED50 [32]: 0.0348 µM; ED50 [33]: 44.8 µM; ED50 [34]: 0.000117 µM; ED50 (Tektin-1 (Homo sapiens)): 44 µM; ED50 [35]: 5.95 µM; ED50 [36]: 2.01 µM; ED50 [37]: 0.00416 µM; ED50 (Copine-4 (Homo sapiens)): 0.00867 µM
